Source: BigSolDB 2.1

CC(C)(C)c1ccc2c(c1)C(=O)c1ccccc1C2=O
solubility (mole fraction)
Settings | 303.15 K | 308.15 K | 313.15 K | 318.15 K | 323.15 K | 333.15 K
in 2,6-dimethyl-4-heptanol | 0.0245 | 0.0351 | 0.0461 | 0.0635 | 0.0998 | 0.21
in mesitylene | 0.282 | 0.317 | 0.345 | 0.386 | 0.443 | 0.604
in trioctyl phosphate | 0.169 | 0.185 | 0.209 | 0.254 | 0.296 | 0.39
